Test results as given in ChEMBL document CHEMBL3352242, “Structure-based design of substituted piperidines as a new class of highly efficacious oral direct Renin inhibitors” (ACS Med Chem Lett, 2014).

Legend:
[1] = test system: Rattus norvegicus; assay: Reduction in mean arterial pressure in human renin and human angiotensinogen double transgenic rat at 3 mg/kg, po; assay type: functional, Artery
[2] = test system: Rattus norvegicus; assay: Reduction in mean arterial pressure in human renin and human angiotensinogen double transgenic rat at 10 mg/kg, po; assay type: functional, Artery
[3] = test system: Rattus norvegicus; assay: Reduction in mean arterial pressure in human renin and human angiotensinogen double transgenic rat at 30 mg/kg, po; assay type: functional, Artery
[4] = test system: Rattus norvegicus; assay: Reduction in mean arterial pressure in human renin and human angiotensinogen double transgenic rat at 100 mg/kg, po; assay type: functional, Artery
[5] = Oral bioavailability in Sprague-Dawley rat at 6 mg/kg; assay type: ADME, organism-based; conditions: in vivo
[6] = Clearance in Sprague-Dawley rat at 2 mg/kg, iv; assay type: ADME, organism-based; set-up: dose 2 mg/kg, route intravenous; conditions: in vivo
[7] = Volume of distribution at steady state in Sprague-Dawley rat at 2 mg/kg, iv; assay type: ADME, organism-based; set-up: dose 2 mg/kg, route intravenous; conditions: in vivo, read-out: Vdss
[8] = Half life in Sprague-Dawley rat at 2 mg/kg, iv; assay type: ADME, organism-based; set-up: dose 2 mg/kg, route intravenous; conditions: in vivo
[9] = test system: Rattus norvegicus; assay: Dose normalized Cmax inSprague-Dawley rat at 6 mg/kg, po; assay type: ADME, organism-based, Sprague-Dawley; set-up: dose 6 mg/kg, route oral; conditions: in vivo
[10] = test system: Rattus norvegicus; assay: Dose normalized AUC (infinity) in Sprague-Dawley rat at 6 mg/kg, po; assay type: ADME, organism-based; set-up: dose 6 mg/kg, route oral; conditions: in vivo
[11] = test system: Rattus norvegicus; assay: Reduction in mean arterial pressure in human renin and human angiotensinogen double transgenic rat at 1 mg/kg, po; assay type: functional, Artery
[12] = Lipophilicity, logD of the compound at pH 6.8; assay type: physicochemical; conditions: buffer
[13] = molecular target: Pepsin A (Homo sapiens, UniProt P0DJD9); assay: Inhibition of human recombinant pepsinogen A expressed in Escherichia coli using fluorescence-quenched Dabcyl-E-R-Nle-F-L-S-F-P-EDANS substrate by fluorimetric assay
Sequence of Pepsin A (P0DJD9 whole entry): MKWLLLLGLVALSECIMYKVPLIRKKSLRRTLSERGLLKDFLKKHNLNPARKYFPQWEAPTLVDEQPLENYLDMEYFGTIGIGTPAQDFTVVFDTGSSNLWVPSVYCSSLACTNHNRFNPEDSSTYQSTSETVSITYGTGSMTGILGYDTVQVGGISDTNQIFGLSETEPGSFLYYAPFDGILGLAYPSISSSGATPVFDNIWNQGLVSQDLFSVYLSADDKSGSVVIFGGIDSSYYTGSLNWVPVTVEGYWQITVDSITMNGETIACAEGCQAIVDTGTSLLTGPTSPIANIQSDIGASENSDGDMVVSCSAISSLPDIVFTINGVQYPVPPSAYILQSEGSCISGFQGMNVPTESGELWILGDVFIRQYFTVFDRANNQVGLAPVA

[14] = molecular target: T1, Gastricsin (Homo sapiens, UniProt P20142); assay: Inhibition of human recombinant pepsinogen C expressed in Escherichia coli using fluorescence-quenched Dabcyl-E-R-Nle-F-L-S-F-P-EDANS substrate by fluorimetric assay
T1 sequence (P20142 whole entry): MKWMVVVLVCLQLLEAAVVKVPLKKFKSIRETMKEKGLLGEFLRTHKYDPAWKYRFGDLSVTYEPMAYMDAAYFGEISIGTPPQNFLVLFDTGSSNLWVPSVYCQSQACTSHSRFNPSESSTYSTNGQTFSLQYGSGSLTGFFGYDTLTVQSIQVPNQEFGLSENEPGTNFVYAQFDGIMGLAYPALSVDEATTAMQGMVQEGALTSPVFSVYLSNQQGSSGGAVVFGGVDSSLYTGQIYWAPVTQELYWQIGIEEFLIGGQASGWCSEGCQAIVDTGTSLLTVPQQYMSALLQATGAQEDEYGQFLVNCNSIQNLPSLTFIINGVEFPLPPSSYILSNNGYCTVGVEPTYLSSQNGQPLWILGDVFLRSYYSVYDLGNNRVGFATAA

[15] = molecular target: Cathepsin D (Homo sapiens, UniProt P07339); assay: Inhibition of human recombinant procathepsin D expressed in SF9 cells using fluorescence-quenched Ac-E-D(EDANS)-KPILFFRLG-K(Dabcyl)-E-Amid substrate by fluorimetric assay
Sequence of Cathepsin D (P07339 65-162 limits assumed): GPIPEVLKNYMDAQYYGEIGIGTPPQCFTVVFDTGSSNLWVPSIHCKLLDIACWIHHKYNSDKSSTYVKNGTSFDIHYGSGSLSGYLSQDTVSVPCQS
Sequence of Cathepsin D (P07339 169-412 limits assumed): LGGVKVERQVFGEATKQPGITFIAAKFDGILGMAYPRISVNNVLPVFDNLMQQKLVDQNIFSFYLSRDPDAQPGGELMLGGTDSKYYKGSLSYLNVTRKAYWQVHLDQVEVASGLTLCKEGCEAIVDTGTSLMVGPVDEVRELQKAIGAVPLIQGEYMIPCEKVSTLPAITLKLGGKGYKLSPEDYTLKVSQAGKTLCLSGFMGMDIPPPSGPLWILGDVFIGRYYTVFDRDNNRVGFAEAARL

[16] = molecular target: T2, Cathepsin E (Homo sapiens, UniProt P14091); assay: Inhibition of human recombinant human procathepsin E expressed in Escherichia coli using fluorescence-quenched Ac-E-D(EDANS)-KPILFFRLG-K(Dabcyl)-E-Amid substrate by fluorimetric assay
T2 sequence (P14091 whole entry): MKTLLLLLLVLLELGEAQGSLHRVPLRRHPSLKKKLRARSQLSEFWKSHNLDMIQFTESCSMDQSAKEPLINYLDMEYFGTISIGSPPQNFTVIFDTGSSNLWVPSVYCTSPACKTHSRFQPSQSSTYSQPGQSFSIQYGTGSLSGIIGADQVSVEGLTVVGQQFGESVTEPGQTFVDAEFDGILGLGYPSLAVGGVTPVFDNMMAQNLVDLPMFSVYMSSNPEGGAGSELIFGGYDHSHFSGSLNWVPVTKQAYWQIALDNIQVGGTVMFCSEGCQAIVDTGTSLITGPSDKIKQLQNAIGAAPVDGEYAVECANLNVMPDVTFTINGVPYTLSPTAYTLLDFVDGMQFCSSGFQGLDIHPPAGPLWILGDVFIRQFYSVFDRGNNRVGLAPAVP

[17] = molecular target: Beta-secretase 1 (Homo sapiens, UniProt P56817); assay: Inhibition of human recombinant BACE1 expressed in SF9 cells using fluorescence-quenched RE(EDANS)-EVNLDAEF-K(DABSYL)-R substrate by fluorimetric assay
Sequence of Beta-secretase 1 (P56817 whole entry): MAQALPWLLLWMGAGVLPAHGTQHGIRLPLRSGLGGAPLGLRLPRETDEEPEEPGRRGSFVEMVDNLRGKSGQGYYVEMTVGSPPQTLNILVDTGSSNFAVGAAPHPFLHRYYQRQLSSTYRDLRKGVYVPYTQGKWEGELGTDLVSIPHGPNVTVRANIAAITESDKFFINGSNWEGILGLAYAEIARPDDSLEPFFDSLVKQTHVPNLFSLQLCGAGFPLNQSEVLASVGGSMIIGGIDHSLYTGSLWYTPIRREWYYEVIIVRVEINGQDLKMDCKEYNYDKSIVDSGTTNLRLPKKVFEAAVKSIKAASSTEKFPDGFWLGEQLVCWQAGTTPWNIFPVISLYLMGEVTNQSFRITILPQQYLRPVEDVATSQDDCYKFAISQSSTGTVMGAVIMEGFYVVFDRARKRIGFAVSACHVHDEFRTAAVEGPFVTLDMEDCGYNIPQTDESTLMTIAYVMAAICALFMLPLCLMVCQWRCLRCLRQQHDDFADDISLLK

[18] = molecular target: T3, Beta-secretase 2 (Homo sapiens, UniProt Q9Y5Z0); assay: Inhibition of human recombinant BACE2 expressed in SF9 cells using fluorescence-quenched RE(EDANS)-EVNLDAEF-K(DABSYL)-R substrate by fluorimetric assay
T3 sequence (Q9Y5Z0 whole entry): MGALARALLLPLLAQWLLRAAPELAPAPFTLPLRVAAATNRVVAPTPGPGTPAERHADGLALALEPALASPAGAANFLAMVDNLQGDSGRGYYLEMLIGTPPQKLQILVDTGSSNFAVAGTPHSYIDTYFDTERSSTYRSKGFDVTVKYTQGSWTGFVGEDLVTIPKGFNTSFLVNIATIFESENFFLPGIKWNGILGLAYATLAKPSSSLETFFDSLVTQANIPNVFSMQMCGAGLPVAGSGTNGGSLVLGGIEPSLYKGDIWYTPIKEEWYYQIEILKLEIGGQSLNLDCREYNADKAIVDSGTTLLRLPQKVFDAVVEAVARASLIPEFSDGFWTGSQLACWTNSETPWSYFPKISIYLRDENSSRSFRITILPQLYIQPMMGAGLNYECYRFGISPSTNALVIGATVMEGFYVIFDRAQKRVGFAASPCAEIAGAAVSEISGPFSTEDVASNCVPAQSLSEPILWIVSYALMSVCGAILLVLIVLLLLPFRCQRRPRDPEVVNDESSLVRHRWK

[19] = molecular target: Cytochrome P450 3A4 (Homo sapiens, UniProt P08684); assay: Inhibition of CYP3A4 (unknown origin); assay type: ADME
Sequence of Cytochrome P450 3A4 (P08684 whole entry): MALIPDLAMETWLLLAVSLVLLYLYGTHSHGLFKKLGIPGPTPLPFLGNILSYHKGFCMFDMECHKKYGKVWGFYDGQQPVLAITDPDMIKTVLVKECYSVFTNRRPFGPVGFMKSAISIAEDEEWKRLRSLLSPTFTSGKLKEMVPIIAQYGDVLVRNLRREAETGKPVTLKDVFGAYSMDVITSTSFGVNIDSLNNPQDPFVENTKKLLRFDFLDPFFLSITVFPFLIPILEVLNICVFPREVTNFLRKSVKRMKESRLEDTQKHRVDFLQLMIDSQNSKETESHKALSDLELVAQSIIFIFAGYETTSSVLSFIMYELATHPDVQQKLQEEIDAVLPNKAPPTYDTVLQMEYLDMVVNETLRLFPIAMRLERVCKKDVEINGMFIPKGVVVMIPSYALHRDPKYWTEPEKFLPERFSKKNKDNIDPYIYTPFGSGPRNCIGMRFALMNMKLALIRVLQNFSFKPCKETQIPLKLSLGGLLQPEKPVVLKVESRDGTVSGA

[20] = molecular target: Cytochrome P450 2C9 (Homo sapiens, UniProt P11712); assay: Inhibition of CYP2C9 (unknown origin); assay type: ADME
Sequence of Cytochrome P450 2C9 (P11712 whole entry): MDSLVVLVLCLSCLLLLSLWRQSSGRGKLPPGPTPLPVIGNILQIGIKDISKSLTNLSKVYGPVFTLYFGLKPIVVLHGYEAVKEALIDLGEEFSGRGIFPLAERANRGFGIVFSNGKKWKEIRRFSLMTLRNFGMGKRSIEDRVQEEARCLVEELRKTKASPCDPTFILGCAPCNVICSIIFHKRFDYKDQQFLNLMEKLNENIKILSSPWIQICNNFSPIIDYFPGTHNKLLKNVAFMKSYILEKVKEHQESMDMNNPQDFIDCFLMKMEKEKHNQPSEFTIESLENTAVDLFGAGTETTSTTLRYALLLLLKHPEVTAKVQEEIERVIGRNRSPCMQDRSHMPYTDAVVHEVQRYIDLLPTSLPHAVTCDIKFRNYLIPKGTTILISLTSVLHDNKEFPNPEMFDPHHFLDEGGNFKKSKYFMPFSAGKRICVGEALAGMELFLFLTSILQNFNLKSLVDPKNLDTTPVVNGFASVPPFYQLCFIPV

[21] = molecular target: Cytochrome P450 2D6 (Homo sapiens, UniProt P10635); assay: Inhibition of CYP2D6 (unknown origin); assay type: ADME
Sequence of Cytochrome P450 2D6 (P10635 whole entry): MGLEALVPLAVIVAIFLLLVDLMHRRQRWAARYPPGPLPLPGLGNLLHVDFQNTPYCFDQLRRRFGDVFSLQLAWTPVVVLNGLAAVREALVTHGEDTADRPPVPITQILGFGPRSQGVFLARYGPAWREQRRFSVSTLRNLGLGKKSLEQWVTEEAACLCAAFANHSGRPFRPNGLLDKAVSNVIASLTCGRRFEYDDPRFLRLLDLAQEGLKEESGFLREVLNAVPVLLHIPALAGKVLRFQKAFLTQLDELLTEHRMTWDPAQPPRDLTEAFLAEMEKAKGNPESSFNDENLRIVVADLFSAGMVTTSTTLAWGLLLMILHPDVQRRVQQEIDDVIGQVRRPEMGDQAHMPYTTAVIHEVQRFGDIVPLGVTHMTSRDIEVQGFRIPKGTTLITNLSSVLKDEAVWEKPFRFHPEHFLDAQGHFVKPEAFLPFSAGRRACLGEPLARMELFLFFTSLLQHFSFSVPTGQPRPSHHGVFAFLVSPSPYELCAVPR

[22] = test system: Salmonella typhimurium; assay: Mutagenicity in Salmonella typhimurium in presence of liver S9 fraction by Ames test; assay type: toxicity, organism-based; conditions: salmonella enterica subsp. enterica serovar typhimurium
[23] = test system: Salmonella typhimurium; assay: Mutagenicity in Salmonella typhimurium in absence of liver S9 fraction by Ames test; assay type: toxicity, organism-based; conditions: salmonella enterica subsp. enterica serovar typhimurium
[24] = molecular target: Sodium channel protein type 5 subunit alpha (Homo sapiens, UniProt Q14524); assay: Inhibition of Nav1.5 (unknown origin) by patch clamp assay
[25] = molecular target: Sodium channel protein type 2 subunit alpha (Homo sapiens, UniProt Q99250); assay: Inhibition of Nav1.2 (unknown origin) by patch clamp assay
Sequence of Sodium channel protein type 2 subunit alpha (Q99250 whole entry): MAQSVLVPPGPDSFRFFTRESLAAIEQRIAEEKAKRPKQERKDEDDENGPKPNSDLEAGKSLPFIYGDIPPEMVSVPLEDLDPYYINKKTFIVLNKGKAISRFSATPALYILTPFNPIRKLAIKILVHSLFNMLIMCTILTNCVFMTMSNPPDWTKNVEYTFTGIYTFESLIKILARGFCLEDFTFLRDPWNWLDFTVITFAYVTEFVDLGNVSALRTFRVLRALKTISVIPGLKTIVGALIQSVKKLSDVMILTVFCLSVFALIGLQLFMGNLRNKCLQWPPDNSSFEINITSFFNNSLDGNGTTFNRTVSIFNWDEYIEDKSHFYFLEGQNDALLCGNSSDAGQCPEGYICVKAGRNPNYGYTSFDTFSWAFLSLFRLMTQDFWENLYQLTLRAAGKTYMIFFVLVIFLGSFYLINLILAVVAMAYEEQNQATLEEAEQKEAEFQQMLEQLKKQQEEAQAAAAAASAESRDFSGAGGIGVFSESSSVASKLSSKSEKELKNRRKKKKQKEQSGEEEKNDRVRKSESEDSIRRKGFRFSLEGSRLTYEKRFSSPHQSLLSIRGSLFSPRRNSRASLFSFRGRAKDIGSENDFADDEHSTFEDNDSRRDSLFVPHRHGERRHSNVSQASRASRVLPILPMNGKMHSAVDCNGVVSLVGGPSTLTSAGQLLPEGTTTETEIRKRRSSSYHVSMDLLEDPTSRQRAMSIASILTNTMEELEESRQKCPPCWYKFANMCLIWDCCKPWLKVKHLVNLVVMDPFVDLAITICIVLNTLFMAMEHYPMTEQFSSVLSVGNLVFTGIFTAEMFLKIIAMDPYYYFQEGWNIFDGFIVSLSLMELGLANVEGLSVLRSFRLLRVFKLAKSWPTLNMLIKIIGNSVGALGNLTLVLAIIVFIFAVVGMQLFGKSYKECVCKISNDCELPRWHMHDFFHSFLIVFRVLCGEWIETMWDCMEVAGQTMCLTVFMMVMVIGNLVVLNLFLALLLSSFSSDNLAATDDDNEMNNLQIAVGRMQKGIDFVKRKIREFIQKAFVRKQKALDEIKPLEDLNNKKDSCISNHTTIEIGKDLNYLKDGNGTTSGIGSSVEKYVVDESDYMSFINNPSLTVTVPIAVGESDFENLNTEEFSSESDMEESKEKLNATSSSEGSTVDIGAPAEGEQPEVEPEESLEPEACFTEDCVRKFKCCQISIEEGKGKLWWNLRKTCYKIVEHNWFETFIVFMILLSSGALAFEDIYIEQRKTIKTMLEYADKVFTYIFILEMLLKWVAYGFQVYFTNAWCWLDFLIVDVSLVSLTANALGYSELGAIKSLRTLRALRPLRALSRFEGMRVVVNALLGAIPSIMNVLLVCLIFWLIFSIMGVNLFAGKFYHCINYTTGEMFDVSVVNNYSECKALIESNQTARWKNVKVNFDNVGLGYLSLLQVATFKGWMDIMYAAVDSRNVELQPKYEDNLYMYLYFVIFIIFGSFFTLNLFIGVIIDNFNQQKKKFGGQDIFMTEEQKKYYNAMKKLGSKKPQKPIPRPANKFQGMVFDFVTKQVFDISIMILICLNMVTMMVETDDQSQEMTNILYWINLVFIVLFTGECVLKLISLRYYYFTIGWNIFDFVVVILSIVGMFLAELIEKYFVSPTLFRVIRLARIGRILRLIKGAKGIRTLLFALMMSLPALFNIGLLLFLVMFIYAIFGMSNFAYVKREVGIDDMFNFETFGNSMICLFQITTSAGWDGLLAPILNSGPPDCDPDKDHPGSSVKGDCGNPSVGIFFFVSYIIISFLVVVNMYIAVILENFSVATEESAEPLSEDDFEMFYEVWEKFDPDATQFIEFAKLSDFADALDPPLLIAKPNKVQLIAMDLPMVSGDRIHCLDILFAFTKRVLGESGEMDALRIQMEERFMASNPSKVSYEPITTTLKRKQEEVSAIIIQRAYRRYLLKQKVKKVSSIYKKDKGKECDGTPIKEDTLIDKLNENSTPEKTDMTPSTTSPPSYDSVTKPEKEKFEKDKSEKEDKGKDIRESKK

[26] = Chemical stability at 80 degC; assay type: physicochemical
[27] = Solubility in water at pH 1 to 9; assay type: physicochemical

`CCOC[C@@H](CC(C)C)NC(=O)[C@@H]1CNC[C@H](C(=O)N(c2ccc(C(C)C)cn2)C2CC2)[C@@H]1O.O=C(O)CCC(=O)O` gave an Activity [1] of 42 mmHg, an Activity [2] of 52 mmHg and an Activity [3] of 63 mmHg. The Activity [4] was 66 mmHg, the bioavailability [5] was 61% and the clearance [6] was 40 mL/min/kg. It also gave a Vd [7] of 4 L/kg, a half-life [8] of 6.8 h and a Cmax/dose [9] of 136 nM/mg/kg. For the same compound, the AUC/dose [10] was 552 nM·h/mg/kg and the Activity [11] was 33 mmHg.

In the case of `CCOC[C@@H](CC(C)C)NC(=O)[C@@H]1CNC[C@H](C(=O)N(c2ccc(C(C)C)cn2)C2CC2)[C@@H]1O`, the logD [12] is reported as 0.93, the IC50 [13] is reported as greater than 30 µM and the IC50 [14] is reported as greater than 30 µM. For the same compound, the IC50 [15] was greater than 30 µM, the IC50 [16] was greater than 30 µM and the IC50 [17] was greater than 30 µM. For the same compound, the IC50 [18] was greater than 30 µM, the IC50 [19] was greater than 30 µM and the IC50 [20] was greater than 30 µM. The IC50 [21] was greater than 30 µM, the Activity [22] was “Non-toxic” and the Activity [23] was “Non-toxic”. The IC50 [24] was greater than 30 µM, the IC50 [25] was greater than 30 µM and the Stability [26] was 3 days. It also gave a solubility [27] greater than 10000 µg/mL.
